Values joined by “and” are separate entries in the source; they are usually repeats but may differ in a detail not shown here. Equal values may be shown once.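 1) Cells in 96-well plates. 2) Compound, 48 h, 5 concentrations. 3) Linear interpolation between surrounding doses. 4) Unreached endpoint = highest concentration. GI50 = concentration required for 50% inhibition of growth. At the TGI there is no net growth.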 Where a SMILES comes first, the peptide text is derived from it. [ ]: non-standard residue; d: D form. The star is where a group is joined. ξ: configuration not given here. NMeF = CN[CH](Cc1ccccc1)C(=O)O; ξNMeF = CNC(Cc1ccccc1)C(=O)O; NMeV = CN[CH](C(=O)O)C(C)C; Boc = CC(C)(C)OC(=O)*; OBn = c1ccc(CO*)cc1
Experiments:
Assay in all cases: NCI tumour cell line growth inhibition, 48 h
SW-620 colon = test system: SW-620 colon
OVCAR-4 ovarian = test system: OVCAR-4 ovarian
TK-10 renal = test system: TK-10 renal
MDA-MB-435 = test system: MDA-MB-435
MDA-MB-231 breast = test system: MDA-MB-231 breast
SF-539 CNS = test system: SF-539 CNS
MCF7 breast = test system: MCF7 breast
HCC-2998 colon = test system: HCC-2998 colon
CCRF-CEM leukemia = test system: CCRF-CEM leukemia
NCI-H460 lung = test system: NCI-H460 lung
PC-3 prostate = test system: PC-3 prostate
K-562 leukemia = test system: K-562 leukemia
CAKI-1 renal = test system: CAKI-1 renal
HCT-15 colon = test system: HCT-15 colon
DU-145 prostate = test system: DU-145 prostate
HCT-116 colon = test system: HCT-116 colon

| Compound | TGI (SW-620 colon) [µM] | TGI (OVCAR-4 ovarian) [µM] | TGI (TK-10 renal) [µM] | TGI (MDA-MB-435) [µM] | TGI (MDA-MB-231 breast) [µM] | TGI (SF-539 CNS) [µM] | TGI (MCF7 breast) [µM] | TGI (HCC-2998 colon) [µM] | TGI (CCRF-CEM leukemia) [µM] | TGI (NCI-H460 lung) [µM] | TGI (PC-3 prostate) [µM] | TGI (K-562 leukemia) | TGI (CAKI-1 renal) [µM] | TGI (HCT-15 colon) [µM] | TGI (DU-145 prostate) [µM] | TGI (HCT-116 colon) [µM] | GI50 (SF-539 CNS) | GI50 (CCRF-CEM leukemia) | GI50 (K-562 leukemia) |
| --- | --- | --- | --- | --- | --- | --- | --- | --- | --- | --- | --- | --- | --- | --- | --- | --- | --- | --- | --- |
| O[C@@]1(C#Cc2ccc3c(c2)OCO3)CCC[C@H]1NCc1ccccc1 | > 100 | > 100 | 70.6 | 50.2 | > 100 | 39.5 | 55.3 | 32.2 | 99.7 | 69 | 51.3 | 41.5 µM | > 100 | 47.3 | > 100 | – | – | – | – |
| COc1ccc2c(c1)CCc1c-2[nH]c2cc3c(cc2c1=O)OCO3 | > 100 | > 100 | > 100 | – | – | > 100 | – | > 100 | > 100 | > 100 | – | > 100 µM | > 100 | > 100 | – | – | – | – | – |
| CCCCN=NNc1cn(C2OC(CO)C(O)C2O)c(=O)[nH]c1=O (centres undefined) | > 100 | > 100 | > 100 | > 100 | > 100 | > 100 | > 100 | > 100 | > 100 | > 100 | > 100 | – | > 100 | > 100 | > 100 | > 100 | – | – | – |
| C=C(C)[C@H]1CC[C@@]23O[C@@H]2[C@@H](C[C@@]2(C)CC(=O)[C@H](CC(=O)C1)O2)OC(=O)[C@@]12CC[C@H](C(=C)C)CC(=O)C[C@H]4O[C@](C)(CC4=O)C[C@@H](OC3=O)[C@@H]1O2 | – | > 100 | > 100 | > 100 | > 100 | > 100 | > 100 | > 100 | > 100 | – | > 100 | > 100 µM | > 100 | > 100 | > 100 | > 100 | – | – | – |
| CNC(=O)C(C)Oc1ccc(OCC2CCCCC2)cc1 (centres undefined) | – | > 100 | > 100 | – | – | > 100 | – | – | > 100 | > 100 | – | > 100 µM | – | > 100 | – | > 100 | – | – | – |
| CC(C)C(NC(=O)OC(C)(C)C)C(=O)N(C)C(Cc1ccccc1)C(=O)N(C)C(C(=O)OCc1ccccc1)C(C)C (stereo not drawn) (Boc-Val-[NMeF]-[NMeV]-OBn; configuration not given here) | > 100 | – | > 100 | – | – | > 100 | – | > 100 | > 100 | > 100 | – | 95.6 µM and > 100 µM | – | > 100 | – | > 100 | 16.4 µM and 78.4 µM | 17.8 µM and 39.1 µM | 12.1 µM and 51.4 µM |
| CNc1cc([N+](=O)[O-])ccc1C(=O)N1CCC[C@H]1CO | > 100 | – | > 100 | > 100 | > 100 | > 100 | > 100 | – | – | > 100 | > 100 | > 100 µM | – | > 100 | > 100 | > 100 | – | – | – |
| Nc1nc(SCC(=O)c2ccccc2)c2[nH]cnc2n1 | > 100 | > 100 | > 100 | – | – | > 100 | – | > 100 | > 100 | > 100 | – | > 100 µM | > 100 | > 100 | – | > 100 | – | – | – |
| CC(C)[C@@H](C(=O)N(C)[C@H](C(=O)N1CCC[C@H]1C(=O)OCc1ccccc1)C(C)C)N(C)C(=O)C(Cc1ccccc1)N(C)C(=O)[C@H](NC(=O)OC(C)(C)C)C(C)C (some centres undefined) (Boc-[dV][ξNMeF][NMeV][NMeV]P-OBn) | > 31.6 | > 100 | > 31.6 | – | – | > 31.6 | – | – | > 31.6 | > 31.6 | – | > 31.6 µM | > 31.6 | > 31.6 | – | > 31.6 | – | – | – |
| C=C1CN=C(Nc2ccc(Cl)cc2)S1 | > 100 | > 100 | > 100 | – | > 100 | > 100 | > 100 | > 100 | > 100 | > 100 | > 100 | > 100 µM | > 10 | > 100 | > 100 | > 100 | – | – | – |
| C=CCCCCCCCCCP(=O)(c1ccccc1)c1ccc2c(c1)OCCOCCOCCOCCO2 (centres undefined) | 29.9 | 24.8 | 32.4 | – | – | 31.9 | – | 31.2 | 40 | 26.4 | – | 24.6 µM | > 100 | 28.2 | – | 25.1 | – | – | – |
| Cc1ccc(Nc2cccc3c2C(=O)c2cccc(Nc4ccc(C)cc4S(=O)(=O)O)c2C3=O)c(S(=O)(=O)O)c1 | > 100 | > 100 | > 100 | – | – | > 100 | – | > 100 | > 100 | > 100 | – | > 100 µM | > 100 | > 100 | – | > 100 | – | – | – |
| COc1cccc(NC(=O)CSc2nnc(Cc3ccccc3)o2)c1 | > 100 | > 100 | > 100 | – | – | > 100 | – | > 100 | > 100 | > 100 | – | > 100 µM | > 100 | > 100 | – | > 100 | – | – | – |
| S=C1NC2=C(CSC/C2=C\c2ccc(Cl)cc2)C(c2ccc(Cl)cc2)N1 (centres undefined) | > 100 | > 100 | > 100 | – | > 100 | – | > 100 | 77.6 | 70.9 | > 100 | > 100 | > 100 µM | > 100 | > 100 | > 100 | > 100 | – | – | – |

Source: PubChem BioAssay (NCI)
